# Earlier results in US20100151107A1, “EXTRACTION METHOD FOR THE CLASSIFIED EXTRACTION AND SEPARATION OF VEGETABLE COMPONENT MATERIALS, AND THE APPLICATION THEREOF” (priority 2006, published 2010).
# Legend:
# [1] = rats; dose 1.000 mg xanthohumol per kg body weight
# [2] = system: 60 different human tumour-cell lines; details: 60 different human tumour-cell lines (leukaemia, lung cancer, large intestine, melanoma, breast cancer)
# [3] = system: isolated mouse mammary gland cells; details: MMOC-test; versus resveratrol isolated from red vine
# healthy cells = details: all hitherto described in-vitro experiments
# [4] = in-vitro; against osteoporosis, arteriosclerosis, diseases of the coronary vessels, heart attack and stroke
smiles,measurement,setting,value
"COc1cc(O)c(CC=C(C)C)c(O)c1C(=O)/C=C/c1ccc(O)cc1 [Xanthohumol, xanthohumol]",toxic effect,[1],no toxic effect
same,growth inhibiting and cytotoxic effect,[2],growth inhibiting and cytotoxic effect
same,effectiveness relative to resveratrol,[3],more than 200 fold
same,cytotoxic effect against healthy cells,healthy cells,no cytotoxic effect
same,preventive effect,[4],preventive effect
